Data taken from ChEMBL document CHEMBL1201862, “PubChem BioAssay data set” (2004).
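Tested at 5 concentrations; 48 h exposure; 96-well plates; endpoints linearly interpolated, else capped at highest concentration. Abbreviation: GI50, concentration required for 50% inhibition of growth.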 Activity calls are given as the source filed them. No stated cut-off is given here; in the data, active = GI50 up to about 1.1 µM and inactive = higher.

Legend:
Assay in all cases: inhibition of tumour cell growth, NCI panel, 48 h
COLO 205 = test system: COLO 205
K562 = test system: K562
OVCAR-5 = test system: OVCAR-5
HOP-62 = test system: HOP-62
SNB-19 = test system: SNB-19
HL-60 = test system: HL-60
UO-31 = test system: UO-31
SR = test system: SR
SF-539 = test system: SF-539
NCI-H460 = test system: NCI-H460
HCT-116 = test system: HCT-116
RPMI-8226 = test system: RPMI-8226
SK-OV-3 = test system: SK-OV-3
Malme-3M = test system: Malme-3M
OVCAR-3 = test system: OVCAR-3
HT-29 = test system: HT-29
RXF 393 = test system: RXF 393
HCC 2998 = test system: HCC 2998
MDA-N = test system: MDA-N
SK-MEL-5 = test system: SK-MEL-5
M14 = test system: M14
PC-3 = test system: PC-3
IGROV-1 = test system: IGROV-1
A498 = test system: A498
SK-MEL-2 = test system: SK-MEL-2
CCRF-CEM = test system: CCRF-CEM
T47D = test system: T47D
A549 = test system: A549
ACHN = test system: ACHN
MDA-MB-435 = test system: MDA-MB-435
MOLT-4 = test system: MOLT-4
HCT-15 = test system: HCT-15
BT-549 = test system: BT-549
LOX IMVI = test system: LOX IMVI
U-251 = test system: U-251
UACC-62 = test system: UACC-62
NCI-H23 = test system: NCI-H23
NCI-H522 = test system: NCI-H522
SF-295 = test system: SF-295
MCF7 = test system: MCF7
SW-620 = test system: SW-620
KM12 = test system: KM12
DU-145 = test system: DU-145
SN12C = test system: SN12C
NCI-H226 = test system: NCI-H226
HOP-92 = test system: HOP-92
786-0 = test system: 786-0
CAKI-1 = test system: CAKI-1
OVCAR-4 = test system: OVCAR-4
NCI/ADR-RES = test system: NCI/ADR-RES
SNB-75 = test system: SNB-75
OVCAR-8 = test system: OVCAR-8
EKVX = test system: EKVX
TK-10 = test system: TK-10
SK-MEL-28 = test system: SK-MEL-28
SF-268 = test system: SF-268
Hs-578T = test system: Hs-578T
MDA-MB-231 = test system: MDA-MB-231
UACC-257 = test system: UACC-257

CC(C)OP(=O)(OC(C)C)C(Nc1cccc(C(F)(F)F)c1)c1ccccc1 (stereo unspecified)
GI50 (COLO 205): 25.5 µM (inactive) | GI50 (K562): 23.4 µM (inactive) | GI50 (OVCAR-5): > 100 µM (inactive) | GI50 (HOP-62): 69.7 µM (inactive) | GI50 (SNB-19): 71.6 µM (inactive) | GI50 (HL-60): 14.7 µM (inactive) | GI50 (UO-31): 17.9 µM (inactive) | GI50 (SR): 21.9 µM (inactive) | GI50 (SF-539): > 100 µM (inactive) | GI50 (NCI-H460): 24 µM (inactive) | GI50 (HCT-116): 17.1 µM (inactive) | GI50 (RPMI-8226): 12.7 µM (inactive) | GI50 (SK-OV-3): > 100 µM (inactive) | GI50 (Malme-3M): 32.3 µM (inactive) | GI50 (OVCAR-3): 35.6 µM (inactive) | GI50 (HT-29): 21.6 µM (inactive) | GI50 (RXF 393): 49.5 µM (inactive) | GI50 (HCC 2998): 55.6 µM (inactive) | GI50 (MDA-N): 41 µM (inactive) | GI50 (SK-MEL-5): 22.4 µM (inactive) | GI50 (M14): 38.5 µM (inactive) | GI50 (PC-3): 37.2 µM (inactive) | GI50 (IGROV-1): 79.4 µM (inactive) | GI50 (A498): > 100 µM (inactive) | GI50 (SK-MEL-2): 50.7 µM (inactive) | GI50 (CCRF-CEM): 31 µM (inactive) | GI50 (T47D): 35.7 µM (inactive) | GI50 (A549): 30.5 µM (inactive) | GI50 (ACHN): 35.6 µM (inactive) | GI50 (MDA-MB-435): 41.6 µM (inactive) | GI50 (MOLT-4): 13.7 µM (inactive) | GI50 (HCT-15): 55.5 µM | GI50 (BT-549): 17.7 µM (inactive) | GI50 (LOX IMVI): 39.4 µM (inactive) | GI50 (U-251): 58.5 µM (inactive) | GI50 (UACC-62): 69.8 µM (inactive) | GI50 (NCI-H23): 55.6 µM (inactive) | GI50 (NCI-H522): 20.2 µM (inactive) | GI50 (SF-295): 47.9 µM (inactive) | GI50 (MCF7): 46.9 µM (inactive) | GI50 (SW-620): > 10 µM (inactive) | GI50 (KM12): 40.6 µM (inactive) | GI50 (DU-145): 77.6 µM (inactive) | GI50 (SN12C): 37.7 µM (inactive) | GI50 (NCI-H226): 60 µM (inactive) | GI50 (HOP-92): 17.1 µM (inactive) | GI50 (786-0): 70.3 µM (inactive) | GI50 (CAKI-1): 18.7 µM (inactive) | GI50 (OVCAR-4): 54.8 µM (inactive) | GI50 (NCI/ADR-RES): 32.7 µM (inactive) | GI50 (SNB-75): > 100 µM (inactive) | GI50 (OVCAR-8): 59.4 µM (inactive) | GI50 (EKVX): 33.3 µM (inactive) | GI50 (TK-10): > 100 µM (inactive) | GI50 (SK-MEL-28): 93.5 µM (inactive) | GI50 (SF-268): > 100 µM (inactive) | GI50 (Hs-578T): 75.3 µM (inactive) | GI50 (MDA-MB-231): 45.9 µM (inactive) | GI50 (UACC-257): 39.1 µM (inactive)

Cc1ccc([N+](=O)[O-])cc1S(=O)(=O)Nc1ccc(C2=NOC(c3ccco3)C2)cc1 (stereo unspecified)
GI50 (COLO 205): 20.1 µM (inactive) | GI50 (K562): 4.7 µM (inactive) | GI50 (OVCAR-5): 22.9 µM (inactive) | GI50 (HOP-62): 12.6 µM (inactive) | GI50 (SNB-19): 18.7 µM (inactive) | GI50 (HL-60): 21.3 µM (inactive) | GI50 (UO-31): 16.9 µM (inactive) | GI50 (SR): 3.33 µM (inactive) | GI50 (SF-539): 23 µM (inactive) | GI50 (NCI-H460): 18.5 µM (inactive) | GI50 (HCT-116): 16.4 µM (inactive) | GI50 (RPMI-8226): 18.9 µM (inactive) | GI50 (SK-OV-3): 28 µM (inactive) | GI50 (Malme-3M): 16.6 µM (inactive) | GI50 (OVCAR-3): 14.8 µM (inactive) | GI50 (HT-29): 22.8 µM (inactive) | GI50 (RXF 393): 8.73 µM (inactive) | GI50 (HCC 2998): 17.2 µM (inactive) | GI50 (MDA-N): 6.44 µM (inactive) | GI50 (SK-MEL-5): 13.2 µM (inactive) | GI50 (M14): 15.3 µM (inactive) | GI50 (PC-3): 15.7 µM (inactive) | GI50 (IGROV-1): 24 µM (inactive) | GI50 (A498): 15.1 µM (inactive) | GI50 (SK-MEL-2): 16 µM (inactive) | GI50 (CCRF-CEM): 18 µM (inactive) | GI50 (T47D): 22.8 µM (inactive) | GI50 (A549): 21.9 µM (inactive) | GI50 (ACHN): 21.3 µM (inactive) | GI50 (MDA-MB-435): 3.03 µM (inactive) | GI50 (MOLT-4): 15.1 µM (inactive) | GI50 (HCT-15): 10.4 µM | GI50 (BT-549): 18 µM (inactive) | GI50 (LOX IMVI): 17.3 µM (inactive) | GI50 (UACC-62): 11.7 µM (inactive) | GI50 (NCI-H23): 16.5 µM (inactive) | GI50 (NCI-H522): 10.7 µM (inactive) | GI50 (SF-295): 14.1 µM (inactive) | GI50 (MCF7): 11.6 µM (inactive) | GI50 (SW-620): 18.7 µM (inactive) | GI50 (KM12): 11.8 µM (inactive) | GI50 (DU-145): 20.2 µM (inactive) | GI50 (SN12C): 21.9 µM (inactive) | GI50 (NCI-H226): 17 µM (inactive) | GI50 (HOP-92): 29.2 µM (inactive) | GI50 (786-0): 18.2 µM (inactive) | GI50 (CAKI-1): 22.8 µM (inactive) | GI50 (OVCAR-4): 14.9 µM (inactive) | GI50 (NCI/ADR-RES): 14.5 µM (inactive) | GI50 (SNB-75): 18.7 µM (inactive) | GI50 (OVCAR-8): 39.2 µM (inactive) | GI50 (EKVX): 24.2 µM (inactive) | GI50 (TK-10): 31.2 µM (inactive) | GI50 (SK-MEL-28): 18.2 µM (inactive) | GI50 (SF-268): 26.1 µM (inactive) | GI50 (Hs-578T): 29.8 µM (inactive) | GI50 (MDA-MB-231): 17.1 µM (inactive) | GI50 (UACC-257): 17.6 µM (inactive)

Cc1[nH]n(-c2ncc(C(=O)O)c(=O)[nH]2)c(=O)c1CCO
GI50 (COLO 205): > 88.9 µM (inactive) | GI50 (K562): > 100 µM (inactive) | GI50 (OVCAR-5): > 100 µM (inactive) | GI50 (HOP-62): > 100 µM (inactive) | GI50 (SNB-19): > 100 µM (inactive) | GI50 (HL-60): > 100 µM (inactive) | GI50 (UO-31): > 100 µM (inactive) | GI50 (SR): > 37 µM (inactive) | GI50 (SF-539): > 84.9 µM (inactive) | GI50 (NCI-H460): > 75.7 µM (inactive) | GI50 (HCT-116): > 100 µM (inactive) | GI50 (RPMI-8226): > 100 µM (inactive) | GI50 (SK-OV-3): > 100 µM (inactive) | GI50 (Malme-3M): > 100 µM (inactive) | GI50 (OVCAR-3): > 100 µM (inactive) | GI50 (HT-29): > 83.8 µM (inactive) | GI50 (RXF 393): > 100 µM (inactive) | GI50 (HCC 2998): > 58.9 µM (inactive) | GI50 (MDA-N): > 100 µM (inactive) | GI50 (SK-MEL-5): > 100 µM (inactive) | GI50 (M14): > 100 µM (inactive) | GI50 (PC-3): > 100 µM (inactive) | GI50 (IGROV-1): > 100 µM (inactive) | GI50 (A498): > 100 µM (inactive) | GI50 (SK-MEL-2): > 100 µM (inactive) | GI50 (CCRF-CEM): > 100 µM (inactive) | GI50 (T47D): > 100 µM (inactive) | GI50 (A549): > 85.3 µM (inactive) | GI50 (ACHN): > 100 µM (inactive) | GI50 (MDA-MB-435): > 100 µM (inactive) | GI50 (MOLT-4): > 100 µM (inactive) | GI50 (HCT-15): > 100 µM | GI50 (BT-549): > 100 µM (inactive) | GI50 (LOX IMVI): > 100 µM (inactive) | GI50 (U-251): > 100 µM (inactive) | GI50 (UACC-62): > 100 µM (inactive) | GI50 (NCI-H23): > 100 µM (inactive) | GI50 (NCI-H522): > 100 µM (inactive) | GI50 (SF-295): > 100 µM (inactive) | GI50 (MCF7): > 92.7 µM (inactive) | GI50 (SW-620): > 100 µM (inactive) | GI50 (KM12): > 100 µM (inactive) | GI50 (DU-145): > 100 µM (inactive) | GI50 (SN12C): > 100 µM (inactive) | GI50 (NCI-H226): > 100 µM (inactive) | GI50 (HOP-92): > 88.1 µM (inactive) | GI50 (786-0): > 100 µM (inactive) | GI50 (CAKI-1): > 100 µM (inactive) | GI50 (OVCAR-4): > 100 µM (inactive) | GI50 (NCI/ADR-RES): > 100 µM (inactive) | GI50 (SNB-75): > 88.5 µM (inactive) | GI50 (OVCAR-8): > 100 µM (inactive) | GI50 (EKVX): > 100 µM (inactive) | GI50 (TK-10): > 100 µM (inactive) | GI50 (SK-MEL-28): > 100 µM (inactive) | GI50 (SF-268): > 100 µM (inactive) | GI50 (Hs-578T): > 100 µM (inactive) | GI50 (MDA-MB-231): > 100 µM (inactive) | GI50 (UACC-257): > 100 µM (inactive)
